In US11072590B2, “1,4,7,10-tetrazacyclododecane based agents to target bacteria and its use” (HELMHOLTZ-ZENTRUM FUER INFEKTIONSFORSCHUNG GMBH, priority 2014, dated 2021):
≈ marks a conversion by molar mass, not a printed value. Read-outs that look alike come from different tables or passages of the source.

Assays:
Format in all cases: cell-based
[1] = tested on: Pseudomonas aeruginosa PA7, Acinetobacter baumannii, Staphylococcus aureus MRSA; assay: Bacterial inhibition assays, across the bacteria tested
Procedure: (§1) All liquids and media were sterilized by autoclaving (121° C., 15 min) before use. All aqueous solutions and media were prepared using distilled, deionized, and filtered water (Millipore Milli-Q Advantage A10 Water Purification System) Mueller-Hinton No. 2 broth (MHII broth; cation adjusted) was purchased from Sigma-Aldrich (St. Louis, Mo.). Iron-deficient (−Fe) MHII broth was prepared by adding 0.8 mL of a 1 mg/mL sterile aq. solution of 2,2′-bipyridine to 49.2 mL of MHII broth. Iron-rich (+Fe) MHII broth was prepared by adding 0.8 mL of a 1 mg/mL sterile aq. solution of FeCl3 to 49.2 mL of MH II broth.
Antibacterial activity of the compounds was determined by measuring their minimum inhibitory concentrations (MIC90's) using the broth microdilution method according to the Clinical and Laboratory Standards Institute (CLSI, formerly the NCCLS) guidelines. Each well of a 96-well microtiter plate was filled with 40 μL of sterile broth media (−Fe or +Fe). Each test compound was dissolved in DMSO making a 10 mM solution, and then diluted with sterile broth media (−Fe or +Fe) to 75 or 150 μM. […]
Compounds HHY-10 and HHY-11 were subjected to further assays to determine their minimum inhibitory concentrations (MIC) in both iron-rich and iron-deficient media (Table 1). […] The inhibitory activities of vancomycin siderophore-DOTA conjugate HHY-30 have been analyzed under similar conditions.

[2] = tested on: P. aeruginosa PA01/wt; assay: Broth microdilution MIC, P. aeruginosa PA01/wt
Procedure: as §1
(§2) Antibacterial activity of the compounds was determined by measuring their minimum inhibitory concentrations (MIC90's) using the broth microdilution method according to the Clinical and Laboratory Standards Institute (CLSI, formerly the NCCLS) guidelines. Each well of a 96-well microtiter plate was filled with 40 μL of sterile broth media (−Fe or +Fe). Each test compound was dissolved in DMSO making a 10 mM solution, and then diluted with sterile broth media (−Fe or +Fe) to 75 or 150 μM. Exactly 80 μL of the compound solution was added to the first well of the microtiter plate and 1.5-fold serial dilutions were made down each row of the plate. Exactly 40 μL of bacterial inoculum (Acinetobacter baumannii, Pseudomonas aeruginosa, Staphylococcus aureus Starting Optical density (OD)=0.0005) was then added to each well giving a total volume of 80 μL/well. The plate was incubated at 37° C. for 48 h and then each well was examined for bacterial growth. The MIC90 was recorded as the lowest compound concentration (μM) required to inhibit 90% of bacterial growth as judged by turbidity of the culture media relative to a row of wells filled with a DMSO standard.

[3] = tested on: Acinetobacter baumannii (DSM 30007, ATCC 19606); assay: Broth microdilution MIC, Acinetobacter baumannii
Procedure: as §1, §2
(§3) Compounds HHY-10 and HHY-11 were subjected to further assays to determine their minimum inhibitory concentrations (MIC) in both iron-rich and iron-deficient media (Table 1). […] Compounds 10 and 11 were also tested against Klebsiella pneumoniae (DSM 11678, ATCC 33495), which is able to synthesize and utilize enterobactin and its degraded product for iron uptake under iron-limited conditions. […] It appears that P. aeruginosa, A. baumannii, Straph aureus and K. pneumoniae, either induced or inherently, have different abilities to use triscatecholate as a siderophore for iron uptake. The inhibitory activities of vancomycin siderophore-DOTA conjugate HHY-30 have been analyzed under similar conditions.

[4] = tested on: P. aeruginosa PA14/wt; assay: Broth microdilution MIC, P. aeruginosa PA14/wt
Procedure: as §1, §2

[5] = tested on: P. aeruginosa PA01/pirA; assay: Broth microdilution MIC, P. aeruginosa PA01/pirA mutant; conditions: mutant with defect in ferric enterobactin receptor (pirA)
Procedure: as §1, §2

[6] = tested on: Pseudomonas aeruginosa PA7 (DSM 24068); assay: Broth microdilution MIC, Pseudomonas aeruginosa
Procedure: as §1, §2, §3

[7] = tested on: Acinetobacter baumannii; assay: Uptake in bacteria by confocal fluorescent microscopy; conditions: 20 μM probe, 1 hour at 37° C., PBS
Procedure: The uptake of coumarin 343, HHY-10 and HHY-11 was investigated in gram-negative bacteria Pseudomonas aeruginosa PA7 (DSM 24068), Acinetobacter baumannii (DSM 30007, ATCC 19606) and gram-positive bacteria Staphylococcus aureus MRSA (DSM 11822, ICB 25701). Gram-negative bacteria were cultured overnight in Mueller Hinton Broth (M-H Broth)+1% glucose (10 g/L) or Gram-positive bacteria were cultured overnight in trypticase soy yeast extract medium (TSY-Med) at 37° C. under 5% CO2 in an incubator shaker set at 180 rpm. Bacteria (from the overnight culture) were re-suspended in 10 mL of PBS buffer, to an optical density of 0.1 at 600 nm. The bacterial culture solution was transferred into 48 well plates, with each well containing 200 μL of bacteria, and 0.4 μL of either coumarin 343, HHY-10 and HHY-11 stock solutions (10 mM in PBS) were added, generating a 20 μM probe concentration. The bacteria were incubated with the probes for 1 hour at 37° C. under 5% CO2 in an incubator without shaking. The bacteria were harvested by centrifuging the bacterial solutions. The resulting pellets were washed 3 times with 200 μL PBS by resuspending the pellets in PBS and centrifuging. The washed bacterial pellets were transferred into a slice, then imaged using confocal fluorescent microscopy. The intensity of the green signal from coumarin presents the relevant amount of these probes taken by the bacteria.

[8] = tested on: Staphylococcus aureus MRSA (DSM 11822, ICB 25701); assay: Broth microdilution MIC, Staphylococcus aureus
Procedure: as §1, §2, §3

[9] = tested on: Klebsiella pneumoniae (DSM 11678, ATCC 33495); assay: Broth microdilution MIC, Klebsiella pneumoniae
Procedure: as §1, §2, §3

[10] = tested on: P. aeruginosa PA07/wt; assay: Broth microdilution MIC, P. aeruginosa PA07/wt
Procedure: as §1, §2

[11] = tested on: P. aeruginosa PAO01/fptA; assay: Broth microdilution MIC, P. aeruginosa PAO01/fptA mutant; conditions: mutation in pyochelin outer membrane receptor precursor
Procedure: as §1, §2

[12] = Fe− (iron-deficient MHII broth)

O=C(O)c1cc2cc3c4c(c2oc1=O)CCCN4CCC3 [Coumarin 343, reference compound]
MIC (generally inactive) ([1]; across bacteria): > 100 µM
MIC ([2]; Fe+ (iron-rich MHII broth)): >100 µM
MIC [2, 12]: >100 µM
MIC ([3]; Fe+ (iron-rich MHII broth)): >100 µM
MIC [3, 12]: >100 µM
MIC ([4]; Fe+ (iron-rich MHII broth)): >100 µM
MIC [4, 12]: >100 µM
MIC ([5]; Fe+ (iron-rich MHII broth)): >100 µM
MIC [5, 12]: >100 µM
MIC ([6]; Fe+ (iron-rich MHII broth)): >100 µM
MIC [6, 12]: >100 µM
uptake: fluorescence (green signal from coumarin) in bacteria [7]: would not lead to obvious fluorescence
MIC ([8]; Fe+ (iron-rich MHII broth)): >100 µM
MIC [8, 12]: >100 µM
MIC ([9]; Fe+ (iron-rich MHII broth)): >100 µM
MIC [9, 12]: >100 µM
MIC ([10]; Fe+ (iron-rich MHII broth)): >100 µM
MIC [10, 12]: >100 µM
MIC ([11]; Fe+ (iron-rich MHII broth)): >100 µM
MIC [11, 12]: >100 µM

CC(=O)Oc1cccc(C(=O)NCCNC(=O)CN2CCN(CC(=O)NCCCOCCOCCOCCCNC(=O)c3cc4cc5c6c(c4oc3=O)CCCN6CCC5)CCN(CC(=O)NCCNC(=O)c3cccc(OC(C)=O)c3OC(C)=O)CCN(CC(=O)NCCNC(=O)c3cccc(OC(C)=O)c3OC(C)=O)CC2)c1OC(C)=O [HHY-10]
antibacterial activity ([1]; iron-deficient medium): media antibacterial activity
MIC ([2]; Pseudomonas aeruginosa, PA01/WT, Fe+ (iron-rich MHII broth)): > 100 µM
MIC ([2]; Pseudomonas aeruginosa, PA01/WT, Fe− (iron-deficient MHII broth)): 40 µM (≈ 66.4 µg/mL)
MIC ([3]; Acinetobacter baumannii, Fe+ (iron-rich MHII broth)): > 100 µM
MIC ([3]; Acinetobacter baumannii, Fe− (iron-deficient MHII broth)): 15 µM (≈ 24.9 µg/mL)
MIC ([4]; Pseudomonas aeruginosa, PA14, Fe+ (iron-rich MHII broth)): > 100 µM
MIC ([4]; Pseudomonas aeruginosa, PA14, Fe− (iron-deficient MHII broth)): 40 µM (≈ 66.4 µg/mL)
MIC ([5]; Pseudomonas aeruginosa, PA01/PIRA, Fe+ (iron-rich MHII broth)): > 100 µM
MIC ([5]; Pseudomonas aeruginosa, PA01/PIRA, Fe− (iron-deficient MHII broth)): 40 µM (≈ 66.4 µg/mL)
MIC ([6]; Pseudomonas aeruginosa, DSM24068, Fe+ (iron-rich MHII broth)): > 100 µM
MIC ([6]; Pseudomonas aeruginosa, DSM24068, Fe− (iron-deficient MHII broth)): 33 µM (≈ 54.8 µg/mL)
uptake: fluorescence (green signal from coumarin) in bacteria [7]: obvious fluorescent signals
MIC ([8]; Staphylococcus aureus, Fe+ (iron-rich MHII broth)): > 100 µM
MIC ([8]; Staphylococcus aureus, Fe− (iron-deficient MHII broth)): 28 µM (≈ 46.5 µg/mL)
MIC [9, 12]: >100 µM
MIC ([9]; Klebsiella pneumoniae): > 100 µM
MIC ([9]; Klebsiella pneumoniae, read-out: MIC (inactive against K. pneumoniae)): > 100 µM
MIC ([10]; Pseudomonas aeruginosa, PA07/WT, Fe+ (iron-rich MHII broth)): > 100 µM
MIC ([10]; Pseudomonas aeruginosa, PA07/WT, Fe− (iron-deficient MHII broth)): 40 µM (≈ 66.4 µg/mL)
MIC ([11]; Pseudomonas aeruginosa, PAO01/FPTA, Fe+ (iron-rich MHII broth)): > 100 µM
MIC ([11]; Pseudomonas aeruginosa, PAO01/FPTA, Fe− (iron-deficient MHII broth)): 40 µM (≈ 66.4 µg/mL)
